Measured values reported in patent US20230165980A1, “METHODS FOR RADIOLABELING PSMA BINDING LIGANDS AND THEIR KITS” (Novartis AG, priority 2020, published 2023).

Experiment: API assay stability of the freeze dried kit (external calibration curve)
Format: physicochemical
Conditions: final formulation kit
Method: Stability tests were performed on the freeze dried product containing the final formulation. […] Kits manufactured with the final formulation, indeed, were stored at different stability conditions (2-8° C.; 25° C. and 40° C.) and were tested at different time points for API-assay, Radiochemical Purity and Radiochemical Stability of the radiolabelled product. Radiochemical Purity and Stability were assessed only eluting IRE Generator which represented the most stressful condition in terms of Radioactive Concentration (Volumic Activity).

API quantitation, 1. injection (3 months at 2-8° C.): 28.87 µg
API quantitation, 2. injection (3 months at 2-8° C.): 29.21 µg
API quantitation, 3. injection (3 months at 2-8° C.): 28.44 µg
API quantitation, Average (3 months at 2-8° C.): 28.84 µg
API quantitation, 1. injection (3 months at 25° C.): 28.19 µg
API quantitation, 2. injection (3 months at 25° C.): 29.57 µg
API quantitation, 3. injection (3 months at 25° C.): 28.33 µg
API quantitation, Average (3 months at 25° C.): 28.70 µg
API quantitation, 1. injection (3 months at 40° C.): 28.17 µg
API quantitation, 2. injection (3 months at 40° C.): 28.05 µg
API quantitation, 3. injection (3 months at 40° C.): 28.06 µg
API quantitation, Average (3 months at 40° C.): 28.10 µg
API quantitation, 1. injection (6 months at 2-8° C.): 29.79 µg
API quantitation, 2. injection (6 months at 2-8° C.): 29.61 µg
API quantitation, 3. injection (6 months at 2-8° C.): 29.43 µg
API quantitation, Average (6 months at 2-8° C.): 29.61 µg
API quantitation, 1. injection (6 months at 25° C.): 29.35 µg
API quantitation, 2. injection (6 months at 25° C.): 29.31 µg
API quantitation, 3. injection (6 months at 25° C.): 29.06 µg
API quantitation, Average (6 months at 25° C.): 29.24 µg
API quantitation, 1. injection (6 months at 40° C.): 28.81 µg
API quantitation, 2. injection (6 months at 40° C.): 28.87 µg
API quantitation, 3. injection (6 months at 40° C.): 28.98 µg
API quantitation, Average (6 months at 40° C.): 28.89 µg
API quantitation, 1. injection (Release (Manufacturing date)): 28.31 µg
API quantitation, 2. injection (Release (Manufacturing date)): 28.76 µg
API quantitation, 3. injection (Release (Manufacturing date)): 27.40 µg
API quantitation, Average (Release (Manufacturing date)): 28.15 µg
SMILES: O=C(O)CCc1ccc(O)c(CN(CCN(CC(=O)O)Cc2cc(CCC(=O)NCCCCCC(=O)NCCCC[C@H](NC(=O)N[C@@H](CCC(=O)O)C(=O)O)C(=O)O)ccc2O)CC(=O)O)c1 [PSMA-11]
